# Values of other authors, collected in US20210199674A1, “TREATMENT METHOD, ANALYZING DEVICE, AND SURFACE TREATING LIQUID” (ARKRAY, Inc., priority 2019, published 2021).
# Details: for acid dissociation constant pKa1: first acidic proton dissociates; for acid dissociation constant pKa4: fourth acidic proton dissociates; for acid dissociation constant pKa2: second acidic proton dissociates; for acid dissociation constant pKa3: third acidic proton dissociates
acid dissociation constant pKa1,acid dissociation constant pKa4,acid dissociation constant pKa2,acid dissociation constant pKa3,SMILES
1.43,10.96,3.05,7.35,O=P(O)(O)CP(=O)(O)O [methylene diphosphonate]
0.9,9.4,2.0,6.6,O=P(O)(O)OP(=O)(O)O [pyrophosphoric acid]
